Experimental data reported in US4880807A, “Nicotinoylpiperazines useful for treatment of convulsions” (Institut De Recherches Chimiques et Biologiques Appliquees …, priority 1987, dated 1989).

Experiments:
[1] = oral toxicity in mice (LD50, mortality over 14 days); conditions: mouse, in vivo, po
Protocol: (§1) The toxicity of the products to be studied was investigated by the oral administration, using an esophageal tube, of each of the said products to male mice with a body weight of 18 to 22 g, divided into groups each containing 10 to 20 animals. The mortality was recorded over a 14-day period.

male mice [2] = test: as above; conditions: per os, male mice; repeated in Table IV; 20160 min
Protocol: as §1

[3] = test system: convulsions induced by supra maximal electroshock (MCE); test: animal or person
Protocol: (§2) The anticonvulsant properties were investigated on male mice, thirty minutes after the oral administration of the substances to be studied, by the induction of convulsive seizures.
These seizures are caused either by the intraperitoneal injection of pentetrazole (125 mg/kg) or by electrical stimulation of the cornea (supra maximal electroshock, abbreviated to MCE).

[4] = test system: convulsions induced by pentetrazole; test: animal or person
Excerpt: as §2

in vivo = type: in vivo; conditions: mouse, in vivo, po; per os, male mice, Rota-rod 30 min after administration; dose causing 50% of animals to fall; read-out: TD50 (50% neurotoxic dose)
Excerpt: (§3) The animals (divided into groups each containing ten male mice per dose and per product) are installed on the rod and their fall is observed over the next two minutes.

male mice [5] = test: in vivo; type: in vivo; conditions: TD50 per os/ED50 per os
Excerpt: as §3

CCCC(CCC)C(=O)[O-].[Na+] [VALP, sodium valproate, reference compound]
LD50 at 336 h [1]: 977 mg/kg | LD50 (male mice [2]): 977 mg/kg | Therapeutic index MCE (LD50/ED50) ([3]; LD50 per os/ED50 per os, MCE convulsions): 4.0 | ED50 ([3]; Mus musculus, po, 0.5 h, read-out: ED50 in respect of convulsions induced by MCE): 242 mg/kg | Therapeutic index PTZ (LD50/ED50) ([4]; LD50 per os/ED50 per os, PTZ convulsions): 4.0 | ED50 ([4]; Mus musculus, po, 0.5 h, read-out: ED50 in respect of convulsions induced by PTZ): 244 mg/kg | TD50 at 0.5 h (in vivo): 670 mg/kg | Protection index MCE (TD50/ED50) (male mice [5]; MCE convulsions): 2.8 | Protection index PTZ (TD50/ED50) (male mice [5]; PTZ convulsions): 2.7
